Assay [1] in a line: competition ELISA for heparin-binding capacity. As to conditions: peptides at 2 μM with 250 units of heparin; FIG. 2. As for the experimental part:
This assay consists on a competition ELISA system, similar to the previously described one. The biotinylated LALF32-51 peptide was adsorbed to polystyrene plates (Costar, USA) in 1×PBS and incubated overnight at 4° C. Analogous peptides L-2, L-8, L-12 and L-20 were mixed at 2 μM with 250 units of heparin (Sodic Heparin, 5,000 U/ml, Liorad) in 1×PBS plus 0.1% of bovine serum albumin (BSA). Afterwards, mixes were added to an ELISA plate containing 0.02 μM of the biotinylated LALF32-51 peptide adsorbed to the solid surface. After a 1 h-incubation at room temperature, plates were washed five times with washing solution and the biotinylated LALF32-51 peptide fixed to the solid surface was detected by incubating for 45 min at 37° C. with streptavidin-peroxidase conjugate at a 1:2,000. Afterwards, plates were washed five times with washing solution and the substrate solution was added. After an additional incubation for 15 min, the reactions were stopped with 2 M sulphuric acid solution. The lack of heparin binding to the analogous peptides correlates with the […] optical density, because they are unable to displace the heparin bound to the biotinylated LALF32-51 peptide adsorb to the solid surface. The unlabeled LALF32-51 peptide at a 100× molar excess was used as control of the assay.
(In general: In an ELISA, binding on a coated surface is turned into a signal by an enzyme label.)

A further assay relates to IFN-α gene. The assay is described as follows: IFN-α gene expression in human mononuclear cells (RT-PCR). The assay is classed as cell-based. As to conditions: 40 μg/ml, 18 h. On the procedure:
(§1) For this assay, human mononuclear cells were isolated by a Ficoll-Hypaque gradient from a leukocyte concentrate or “Buffy Coat” of a donor. Up to 5×10^6 were seeded in 24-well plates in RPMI 1640 medium supplemented with 10% calf fetal serum. Each peptide was further added at 40 μg/ml in a 0.1 ml volume of RPMI medium and cells were cultured for 18 h at 37° C. and 5% of CO2. Total RNA was extracted by using the TriReagent method. Afterwards, the expressions of IFN-α, IFN-γ and IL-12 genes were determined by the reverse transcription reaction and PCR amplification (RT-PCR kit, Perkin Elmer). Results are shown as relative amounts of messenger RNA normalized against expression levels of the β-actin housekeeping gene.

The next assay concerns IFN-γ gene. The assay can be described thus: IFN-γ gene expression in human mononuclear cells (RT-PCR). Format: cell-based. As to conditions: 40 μg/ml, 18 h; mRNA normalized against β-actin; FIG. 3A. On the procedure:
as §1

A further assay deals with IL-12 gene. The assay is described as follows: IL-12 gene expression in human mononuclear cells (RT-PCR). The following applies: 40 μg/ml, 18 h; mRNA normalized against β-actin; FIG. 3A. Format: cell-based. As for the experimental part:
as §1

Assay [2] relates to TC-1 tumor cells. The assay is described as follows: anti-tumoral effect in the TC-1 tumor model. The assay is classed as in vivo. The following applies: 4 mg per kg s.c. On the procedure: Eight-to-ten weeks-old C57BI/6 female mice were used for this assay (n=10 animals per experimental group). For tumor graft, TC-1 tumor cells derived from C57BI/6 malignant epithelial lung cells were used, being resuspended in phosphate-buffered saline (PBS). An amount of 50,000 cells in a 200 μl volume was inoculated to mice by subcutaneous route in the right hind limb. The first peptide administration was carried out by subcutaneous route in the right flank once tumor reached a 100 mm^3 volume, and the second was carried out after 10 days. In this assay, a 4 mg per kg of weight dose was evaluated (80 μg/mice). Animal survival and tumor mass were the parameters evaluated to measure the anti-tumoral effect peptides of interest, as shown in FIGS. 4A and 4B. […] The Log Rank method was used as statistical analysis for detecting significant differences between groups.

In another assay the test system is MB16-F10 tumor cells. The assay can be described thus: anti-tumoral effect in a melanoma model. The following applies: 4 mg per kg. Format: in vivo, C57BI/6 female mice. On the procedure:
Eight-to-ten weeks-old C57BI/6 female mice were used for this assay (n=10 animals per experimental group). For tumor graft, MB16-F10 tumor cells were used, being resuspended in phosphate-buffered saline (PBS). An amount of 15,000 cells were inoculated in a 200 μl volume by subcutaneous route in the right hind limb. After 4 days, the L-2 peptide was administered, with the second injection administered 7 after the first, and the third immunization was administered 14 days after. In this assay was evaluated a dose of 4 mg of peptide per kg of animal weight. Parameters evaluated to measure the anti-tumoral effect of the given peptide during this assay were the time of tumor grafting and the animal survival.

Assay [3] deals with TC-1 tumor cells. The assay can be described thus: prophylactic schedule of treatment in the TC-1 tumor model. The assay is classed as in vivo. The following applies: 4 mg/kg, two injections before inoculation of TC-1 cells. As for the experimental part: Eight-to-ten weeks-old C57BI/6 female mice were used for this assay (n=10 animals per experimental group). For tumor graft, TC-1 tumor cells, being resuspended in phosphate-buffered saline (PBS). Mice were first injected with the L-2 peptide (4 mg of peptide/kg of body weight). After 7 days, they received a second injection of the same dose; after 14 days of the first peptide injection, animals were inoculated with 50,000 cells in a 200 μl volume by subcutaneous route in the right hind limb. Parameters evaluated for measuring the anti-tumoral effect of the peptide included the time for tumor grafting (FIG. 6A) and the survival of animals (FIG. 6B).

The subject of assay [4] is TC-1 cells. The assay can be described thus: double challenge schedule with TC-1 tumor cells. Format: in vivo. As to conditions: second challenge, day 49 after the first challenge. As for the experimental part: Animals without established tumors in the schedule of the previous example (n=6) were further challenged for a second time with 50,000 TC-1 cells in a 200 μl volume in PBS by subcutaneous route in the left hind limb (day 49 after the first challenge). The same amount of tumor cells were inoculated to “naïve” mice from the same litter as control group of the experiment, to guarantee the homogeneity in age, and were kept under the same conditions without receiving the peptide (n=10 animals). Parameters evaluated to measure the anti-tumoral effect of the L-2 peptide included the time of tumor grafting and animal survival.

For assay [5], the system named is TC-1 cells. The assay is described as follows: growth of tumor cells, crystal violet, TC-1. Format: cell-based, C57BI/6. As to conditions: 9 μM to 300 μM, 72 h; FIG. 9. On the procedure:
(§2) For this assay, TC-1, H-125 (non-small human ling cancer cells) and L929) murine fibroblast) cells were seeded in 96-well culture plates (Costar) at a 2×10^4 cells/ml in Dulbecco's modified Eagle's medium (DMEM)(Gibco) supplemented with Calf Fetal Serum (Gibco). After 24 h, the peptides were added to the culture in a range of 9 μM to 300 μM. […] Plates were extensively washed with tap water and plates were read at 562 nm. A pro-apoptotic peptide with a marked anti-proliferative effect in vitro was employed as positive control (Perea, S., et al (2004) Antitumor Effect of a Novel Proapoptotic Peptide that Impairs the Phosphorylation by the Protein Kinase 2 Cancer Research 64: 7127-7129).

For assay [6], the system named is L929 murine fibroblast cells. The assay is described as follows: growth of cells, crystal violet, L929. The assay is classed as cell-based. The following applies: 9 μM to 300 μM, 72 h; FIG. 9. On the procedure:
as §2

[7] abbreviates: at 100 mm^3 tumor volume and after 10 days, FIG. 4.

Regarding “HARIKPTFRRLKWKYKGKFW [Peptide L-2, alanine-substituted analogue of LALF 32-51]”, the heparin binding result in [1] is given as “unable to bind heparin”. Moreover, in the assay on IFN-α gene (FIG. 3B), the “expression of the IFN-α gene compared to the LALF32-51 peptide” value is “more effective”. Besides, the “expression of the IFN-α gene” value in the assay with IFN-α gene (mRNA normalized against β-actin, FIG. 3A) is listed as “capable of inducing the expression”. Besides, the “expression of the IFN-γ gene” value with IFN-γ gene was “capable of inducing the expression”. Also, the “expression of the IL-12 gene” value in the assay on IL-12 gene is on record as “capable of inducing the expression”. Moreover, in the assay on TC-1 tumor cells [2] (setting [7]), the survival of mice result is on record as “prolonging survival of mice”. In the assay with TC-1 tumor cells [2] (setting [7]), the “tumor progression (tumor mass)” value is given as “effective for inhibiting tumor progression”. Further, in the assay on TC-1 tumor cells [2] (Log Rank, *p<0.05), the “survival of animals compared to the LALF32-51 peptide” value was “significantly increase the survival of animals”. The “time of tumor grafting” value is “significantly delayed tumor grafting” in the assay on MB16-F10 tumor cells (three administrations starting after 4 days, Log Rank *p<0.05, FIG. 5A) and “retarding the establishment of the tumor” in the assay on TC-1 cells [4] (FIG. 7A). Further, the animal survival entry is “significantly increased the survival of animals” in the assay on MB16-F10 tumor cells (three administrations, Log Rank *p<0.05, FIG. 5B) and “increasing animal survival” with TC-1 cells [4] (FIG. 7B). Also, the “animal survival compared to the LALF32-51 peptide” value in the assay on MB16-F10 tumor cells (FIG. 5B) was “more effective than the LALF32-51 peptide”. Also, the “time for tumor grafting” value with TC-1 tumor cells [3] (FIG. 6A) is “effective to prevent the development of the tumor”. The survival of animals result with TC-1 tumor cells [3] (FIG. 6B) was “increased the survival of the animals”. Moreover, the anti-proliferative effect result in the assay on TC-1 cells [5] was “dose-dependent anti-proliferative effect”; in assay [6], “no effect was detected”.

Values taken from patent US8283324B2, “Immunomodulatory and anti-tumour peptides” (Centro de Ingenieria Genetica y Biotecnologia, priority 2006, dated 2012).
